From patent US10213407B2, “Compounds and methods for inhibiting production of trimethylamine” (The Procter & Gamble Company, priority 2015, dated 2019) come the findings set out here.

The target of this experiment is Ec YeaWX lysate (Escherichia coli (strain K12), UniProt P0ABR7). The experiment in a line: Inhibition of formation of TMA from carnitine in Ec YeaWX lysate (d9-carnitine to d9-TMA, LC-MS/MS). As to conditions: conversion of carnitine to TMA; Ec YeaWX lysate 2.0 mg/mL protein, 250 μM NADPH, 50 μM d9-carnitine chloride, 37° C., two hours; read-out: TMA Inhibition (IC50, mol/L). The format is biochemical. An excerpt: EXAMPLE 3 provides an exemplary assay for identifying and characterizing compounds from Formula (I), or Formula (II), that inhibit the formation of TMA from carnitine.
Chain of Ec YeaWX lysate (P0ABR7 whole entry): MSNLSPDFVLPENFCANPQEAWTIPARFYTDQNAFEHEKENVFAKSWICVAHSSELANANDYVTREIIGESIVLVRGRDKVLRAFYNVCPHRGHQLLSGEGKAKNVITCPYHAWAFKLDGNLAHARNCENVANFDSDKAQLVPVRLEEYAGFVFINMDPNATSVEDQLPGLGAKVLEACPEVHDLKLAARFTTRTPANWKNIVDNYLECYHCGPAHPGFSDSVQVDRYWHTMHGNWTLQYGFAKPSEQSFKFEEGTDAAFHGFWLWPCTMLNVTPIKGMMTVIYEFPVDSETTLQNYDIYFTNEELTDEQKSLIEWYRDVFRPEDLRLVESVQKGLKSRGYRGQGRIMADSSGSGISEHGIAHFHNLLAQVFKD
Escherichia coli BL21*DE3::pET30a-Ec yeaWX #1 (Ec YeaWX) strain was generated as described below. The contiguous Escherichia coli coding sequence yeaW (equivalent to uniprot ID P0ABR7.1 (YeaW) (SEQ ID NO: 2)) and yeaX (equivalent to uniprot ID P76254.1 (YeaX) (SEQ ID NO: 3)) were PCR amplified from Escherichia coli strain K-12 substr. BW25113 genomic DNA. PCR primers (YeaW_Nde I_fwd2-SEQ ID NO: 4; YeaX_rev2-SEQ ID NO: 5) were designed to create a 5′ NdeI restriction site including the ATG start codon of yeaW and create a PstI restriction site just 3′ of the yeaX TAG stop codon.
The amplicon was restricted and cloned into the NdeI and PstI sites of the plasmid pET30a downstream of the inducible T7 promoter. A blast search of the resulting cloned amplicon DNA sequence (SEQ ID NO: 1) corresponded to nucleotide range 1884665 to 1886810 of Escherichia coli str. K-12 substr. MG1655 (NCBI Accession #NC_000913). The construct was transformed and grown in E. coli BL21(DE3) and the recombinant yeaWX overexpressed by addition of isopropyl β-D-1-thiogalactopyranoside (IPTG).
The bacteria were grown aerobically in 50 mL LB broth (Difco #244620; 10 g/L Tryptone, 5 g/L yeast extract, 10 g/L NaCl, 50 μg/mL kanamycin), in a 500 mL Erlenmeyer flask. The cultures were inoculated from glycerol stock of BL21*DE3::pET30a-Ec yeaWX #1 strain. Strains were cultured all day at 37° C. with 250 rpm shaking. Two 300 mL Minimal M9 Medium (6 g/L Na2HPO4, 3 g/L KH2PO4, 0.5 g/L NaCl, 1 g/L NH4Cl, 0.1 mM CaCl2, 1 mM MgSO4, 0.2% Dextrose, 1 mg/L Thiamine, 50 μg/mL kanamycin), in 1 L Erlenmeyer flasks, were inoculated with 5 mL of the LB broth day culture and cultured overnight at 37° C. with 250 rpm shaking. The overnight cultures were used to inoculate twelve 1 L cultures of Minimal M9 media in 2.8 L fluted Erlenmeyer flasks to an OD 600 nm of 0.05 (typically approximately 28 mLs), which were grown at 37° C. with 250 rpm shaking until an OD600 of approximately 0.4 was reached. Expression of YeaWX was induced with 1 mM IPTG and the induced cultures were further grown overnight at 37° C. with 250 rpm shaking. The biomass was pelleted by centrifugation at 6000×g for 12 minutes at 4° C. The cell pellet was suspended in 240 mL of ice-cold 1× Phosphate Buffered Saline (Ca^2+ and Mg^2+ free). Ninety micrograms of Lysozyme (Sigma #L6876 Lot #SLBG8654V; Sigma-Aldrich Corp., St. Louis, Mo.) was added and incubated with 320 rpm shaking for 30 minutes at 4° C. Lysis was achieved via French press with a 4° C. prechilled 1″ diameter chamber at 1000 psi (high ratio; internal PSI equivalent ˜16000). The lysate was centrifuged at 6,000×g for 12 minutes at 4° C. to pellet extra debris. Glycerol was added to the centrifuged lysate supernatant at a final concentration of 15% A protein concentration of the centrifuged lysate supernatant was determined by a BCA Protein Assay Kit (Pierce #23225), typically in the 2.5 to 4.5 mg/ml range. The centrifuged Ec YeaWX lysate supernatant was aliquoted into 20 mL volumes and stored frozen at −80° C.
Ec YeaWX lysate was diluted to 2.0 mg/mL protein with 1× Dulbecco's phosphate buffered saline (DPBS) plus 15% glycerol. Nicotinamide adenine dinucleotide phosphate (NADPH) was added to 250 μM. […]

For the compound `CC[N+](C)(CC)CCCN=C=S` [Compound 2, 3-Isothiocyanato-N,N-diethyl-N-methylpropanaminium iodide], the IC50 amounted to 0.0002 mol/L.

Turning to `CCOC(=O)C(=O)C[N+](C)(C)CCN=C=S` [Compound 5, N-(Ethoxypropyl-2,3-dione)-2-isothiocyanato-N,N-dimethylethan-1-aminium bromide], the IC50 worked out at 0.00551 mol/L.

In the case of `CCOC(=O)C(=O)C[N+](C)(C)CCCN=C=S` [Compound 6], the IC50 worked out at 0.0002 mol/L.

With `CC[N+](CC)(CCBr)CCCN=C=S` [Compound 7, N-(2-Bromoethyl)-3-isothiocyanato-N,N-diethylpropan-1-aminium triflate], the IC50 came out at 0.00017 mol/L.

For the compound `CC[N+](CC)(CC#N)CCCN=C=S` [Compound 9, N-Cyanomethyl-3-isothiocyanato-N,N-diethylpropan-1-aminium bromide], the IC50 came to 0.0006 mol/L.
